22 compounds from PubChem BioAssay AID248 (DTP/NCI, 2004) can be followed below.

The assay has as its system L1210 leukemia ip in BDF1 mice, survival T/C. The experiment in a line: NCI In Vivo Anticancer Drug Screen. Data for tumor model L1210 Leukemia (intraperitoneal) in B6D2F1 (BDF1) mice. Conditions: endpoint: mean survival time, higher = longer survival. The procedure, abridged:
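In this screen, tumor-bearing mice given compound are compared to those given vehicle, and their survival values are reported as a treated-to-control quotient.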

The mark [1] stands for this setting: dose: 50.0 mg/kg/injection, schedule: Q01DX009 (ip), vehicle: saline with Tween-80.
Where [2] appears, read: dose: 100.0 mg/kg/injection, schedule: Q01DX009 (ip), vehicle: saline with Tween-80.
Where [3] appears, read: dose: 200.0 mg/kg/injection, schedule: Q01DX009 (ip), vehicle: saline with Tween-80.
Where [4] appears, read: dose: 100.0 mg/kg/injection, schedule: Q04DX002 (ip), vehicle: saline.
[5] abbreviates: dose: 200.0 mg/kg/injection, schedule: Q04DX002 (ip), vehicle: saline.
Where [6] appears, read: dose: 400.0 mg/kg/injection, schedule: Q04DX002 (ip), vehicle: saline.
Where [7] appears, read: dose: 100.0 mg/kg/injection, schedule: Q01DX001 (ip), vehicle: other.
Where [8] appears, read: dose: 200.0 mg/kg/injection, schedule: Q01DX001 (ip), vehicle: other.
Setting [9] is: dose: 400.0 mg/kg/injection, schedule: Q01DX001 (ip), vehicle: other.
[10] abbreviates: dose: 100.0 mg/kg/injection, schedule: Q01DX001 (ip), vehicle: saline.
[11] abbreviates: dose: 200.0 mg/kg/injection, schedule: Q01DX001 (ip), vehicle: saline.
The mark [12] stands for this setting: dose: 400.0 mg/kg/injection, schedule: Q01DX001 (ip), vehicle: saline.
[13] abbreviates: dose: 100.0 mg/kg/injection, schedule: Q01DX009 (ip), vehicle: Klucel (hydroxypropylcellulose) (HPC).
Setting [14] is: dose: 200.0 mg/kg/injection, schedule: Q01DX009 (ip), vehicle: Klucel (hydroxypropylcellulose) (HPC).
[15] abbreviates: dose: 400.0 mg/kg/injection, schedule: Q01DX009 (ip), vehicle: Klucel (hydroxypropylcellulose) (HPC).

Several values for one entry are separate records, joined by “and”; a condition that tells them apart may be missing. Equal values may be shown once. Inconclusive results and toxic doses are left out.

As to `CCN(CC)Cc1cccc(Nc2cc(C)nc(/N=C(\N)Nc3ccc(Cl)c(Cl)c3)n2)c1`, the T/C by setting is: (dose: 75.0 mg/kg/injection, schedule: Q01DX001 (ip), vehicle: other) 98 % of control; (dose: 150.0 mg/kg/injection, schedule: Q01DX001 (ip), vehicle: other) 95 % of control; (dose: 300.0 mg/kg/injection, schedule: Q01DX001 (ip), vehicle: other) 95 % of control.
Turning to `O=C(O)/C=C/C(=O)Nc1ccc(N=Nc2ccccc2)cc1`, the T/C under setting [1] was 101 % of control, the T/C under setting [2] was 92 % of control and the T/C under setting [3] was 89 % of control.
With `Cc1ccc(NN)c(I)c1`, the T/C runs as follows: (dose: 100.0 mg/kg/injection, schedule: Q01DX001 (ip), vehicle: saline with Tween-80) 97 % of control; (dose: 200.0 mg/kg/injection, schedule: Q01DX001 (ip), vehicle: saline with Tween-80) 93 % of control; (dose: 400.0 mg/kg/injection, schedule: Q01DX001 (ip), vehicle: saline with Tween-80) 95 % of control.
With `CCOCC(=O)CC1=CCCCC1`, the T/C by setting is: under setting [1], 94 % of control; under setting [2], 102 % of control; under setting [3], 94 % of control.
For the compound `CCSCCC1(CCC(C)C)C(=O)NC(=Nc2ccccc2)NC1=O` (configuration not stated), the T/C runs as follows: (dose: 100.0 mg/kg/injection, schedule: Q01DX001 (ip), vehicle: carboxymethylcellulose (CMC)) 90 % of control; (dose: 200.0 mg/kg/injection, schedule: Q01DX001 (ip), vehicle: carboxymethylcellulose (CMC)) 88 % of control; (dose: 400.0 mg/kg/injection, schedule: Q01DX001 (ip), vehicle: carboxymethylcellulose (CMC)) 96 % of control.
For the compound `CC(C)c1ccc(-n2c(=S)[nH]c3ccccc3c2=O)cc1`, the T/C runs as follows: under setting [4], 107 % of control; under setting [5], 93 % of control; under setting [6], 104 % of control.
`S=C([S-])[P+](C1CCCCC1)(C1CCCCC1)C1CCCCC1`: the T/C by setting is: under setting [1], 97 % of control; under setting [2], 97 % of control; (dose: 100.0 mg/kg/injection, schedule: Q04DX003 (ip), vehicle: saline with Tween-80) 97 % of control; under setting [3], 97 % of control; (dose: 200.0 mg/kg/injection, schedule: Q04DX003 (ip), vehicle: saline with Tween-80) 87 % of control.
Consider `O=C1c2ccccc2C(=O)c2c1ccc1c(S(=O)(=O)Cl)cccc21`, for which the T/C runs as follows: under setting [4], 122 % of control; under setting [5], 97 % of control; under setting [6], 94 % of control.
`O=C(Nc1cc([N+](=O)[O-])ccc1F)Oc1ccccc1F`: the T/C (dose: 100.0 mg/kg/injection, schedule: Q04DX003 (ip), vehicle: Klucel (hydroxypropylcellulose) (HPC)) was 102 % of control; the T/C (dose: 200.0 mg/kg/injection, schedule: Q04DX003 (ip), vehicle: Klucel (hydroxypropylcellulose) (HPC)) was 94 % of control; the T/C (dose: 400.0 mg/kg/injection, schedule: Q04DX003 (ip), vehicle: Klucel (hydroxypropylcellulose) (HPC)) was 98 % of control.
With `NC(=S)N/N=C\c1ncnc2nc[nH]c12`, the T/C was 111 % of control (dose: 0.5 mg/kg/injection, schedule: Q03HX024 (ip), vehicle: saline); 121 % of control (dose: 1.0 mg/kg/injection, schedule: Q03HX024 (ip), vehicle: saline); 114 % of control (dose: 5.0 mg/kg/injection, schedule: Q01DX001 (ip), vehicle: saline); 150 % of control (dose: 8.0 mg/kg/injection, schedule: Q03HX024 (ip), vehicle: saline); 118 % of control (dose: 10.0 mg/kg/injection, schedule: Q01DX001 (ip), vehicle: saline); 114 % of control (dose: 20.0 mg/kg/injection, schedule: Q01DX001 (ip), vehicle: saline).
`CN1C(=O)C2C=C(Cl)C1c1ccccc12` (configuration not stated): the T/C runs as follows: under setting [7], 102 % of control; under setting [8], 94 % of control; under setting [9], 110 % of control.
On to `Cc1cnc(SCc2ccc(Cl)cc2)[nH]c1=S`, for which the T/C runs as follows: (dose: 25.0 mg/kg/injection, schedule: Q01DX Z (ip), vehicle: methylcellulose (MC)) 87 % of control; (dose: 50.0 mg/kg/injection, schedule: Q01DX Z (ip), vehicle: methylcellulose (MC)) 89 % of control.
With `O=[N+]([O-])c1ccc(O)c(C2CCCCC2)c1`, the T/C (dose: 100.0 mg/kg/injection, schedule: Q01DX009 (ip), vehicle: gum acacia) was 92 % of control; the T/C (dose: 200.0 mg/kg/injection, schedule: Q01DX009 (ip), vehicle: gum acacia) was 87 % of control; the T/C (dose: 400.0 mg/kg/injection, schedule: Q01DX009 (ip), vehicle: gum acacia) was 86 % of control.
Consider `COC(=O)c1cc(C)cc(Oc2ccccc2[N+](=O)[O-])c1C`, for which the T/C under setting [10] was 96 % of control, the T/C under setting [11] was 98 % of control and the T/C under setting [12] is 98 % of control.
`CN(C)c1ccc(C=C2/C(=N\O)c3ccccc3/C2=N/O)cc1`: the T/C was 98 % of control under setting [13], 96 % of control under setting [14] and 94 % of control under setting [15].
On to `Nc1cc(NCc2ccccc2)nc(=O)[nH]1`, for which the T/C reads like this: (dose: 100.0 mg/kg/injection, schedule: Q01DX001 (ip), vehicle: gum acacia) 97 % of control; (dose: 200.0 mg/kg/injection, schedule: Q01DX001 (ip), vehicle: gum acacia) 95 % of control; (dose: 400.0 mg/kg/injection, schedule: Q01DX001 (ip), vehicle: gum acacia) 101 % of control.
Turning to `Cc1cc(NCC(O)C(O)C(O)CO)c(C(=O)NN)cc1C` (configuration not stated), the T/C reads like this: under setting [10], 101 % of control; under setting [11], 96 % of control; under setting [12], 95 % of control.
As for `CCOC(=O)C1CC2CCC1CC2` (configuration not stated), the T/C is, setting by setting: (dose: 25.0 mg/kg/injection, schedule: Q01DX005 (ip), vehicle: saline with Tween-80) 92 % of control; (dose: 25.0 mg/kg/injection, schedule: Q01DX009 (ip), vehicle: saline with Tween-80) 102 % of control; (dose: 25.0 mg/kg/injection, schedule: Q04DX002 (ip), vehicle: saline with Tween-80) 106 % of control; (dose: 50.0 mg/kg/injection, schedule: Q01DX005 (ip), vehicle: saline with Tween-80) 92 % of control; under setting [1], 94 % of control; (dose: 50.0 mg/kg/injection, schedule: Q04DX002 (ip), vehicle: saline with Tween-80) 94 % of control. Also, the T/C runs as follows: (dose: 100.0 mg/kg/injection, schedule: Q01DX005 (ip), vehicle: saline with Tween-80) 89 % of control; under setting [2], 109 % of control; (dose: 100.0 mg/kg/injection, schedule: Q04DX002 (ip), vehicle: saline with Tween-80) 97 % of control and 103 % of control.
As for `CSC(=NC1CCCCC1)Nc1ccccc1`, the T/C was 98 % of control under setting [7], 98 % of control under setting [8] and 88 % of control under setting [9].
Turning to `CCS(=O)(=O)Nc1ccc(NS(=O)(=O)CC)cc1`, the T/C reads like this: under setting [13], 96 % of control; under setting [14], 100 % of control; under setting [15], 101 % of control.
On to `CC(=O)Nc1ccc(S(=O)(=O)NC2CCCCC2)cc1`, for which the T/C runs as follows: (dose: 50.0 mg/kg/injection, schedule: Q01DX001 (ip), vehicle: Klucel (hydroxypropylcellulose) (HPC)) 94 % of control; (dose: 100.0 mg/kg/injection, schedule: Q01DX001 (ip), vehicle: Klucel (hydroxypropylcellulose) (HPC)) 97 % of control; (dose: 200.0 mg/kg/injection, schedule: Q01DX001 (ip), vehicle: Klucel (hydroxypropylcellulose) (HPC)) 100 % of control.
For the compound `O=C(O)C1(O)CCCCC1`, the T/C is 104 % of control under setting [10]; 100 % of control (dose: 100.0 mg/kg/injection, schedule: Q01DX009 (ip), vehicle: saline); 104 % of control under setting [4]; 98 % of control (dose: 100.0 mg/kg/injection, schedule: Q04DX003 (ip), vehicle: saline); 110 % of control under setting [11]; 93 % of control under setting [5]. In addition, the T/C by setting is: (dose: 200.0 mg/kg/injection, schedule: Q04DX003 (ip), vehicle: saline) 113 % of control; under setting [12], 110 % of control; (dose: 400.0 mg/kg/injection, schedule: Q04DX003 (ip), vehicle: saline) 101 % of control.
